Where “and” joins values, the source holds several entries; their conditions need not be identical. Equal values may be shown once.
Assays:
[1] = tested on: in vitro tadpole brainstem; conditions: 10 μM NBA, entire in vitro tadpole brainstem; cited from earlier work
[2] = tested on: MDA-MB-231 tumors; experiment: Tumor growth of MDA-MB-231-GFP tumors in nude mice after one-time NBA phototherapy; type: in vivo; conditions: one-time 0.1 ml 1 mM NBA into tumor + 405 nm 60-30-60 illumination, P<0.05
Procedure: We injected the aggressive triple negative breast cancer MDA-MB-231-GFP (2×10^6 cells) into the mammary fat pad of 5 week old female nude mice. Tumors appeared after approximately one week following injection. Treatment was initiated once the tumors reached and maintained a length of 5 mm for two consecutive days. The mice received a one-time treatment of either a control injection if 0.1 ml of aCSF to the tumor or 0.1 ml of NBA (1 mM) followed by photoactivation. The NBA/photoactivation treatment was conducted as follows: one hour after NBA injection, the animal was anesthetized (1.5-4% isoflurane) prior to the insertion of a 200 μm fiber optic cannula into the tumor mass. The interior of the tumor was illuminated with 405 nm light (80-85 mW) via a ceramic cannula using the same illumination paradigm which was effective in vitro, specifically 60 seconds of illumination, 60 seconds of no illumination, 30 seconds of illumination, 60 seconds of no illumination, and 60 seconds of illumination. This paradigm is referred to as a “60-30-60” illumination paradigm.
Tumors were measured daily in order to calculate changes in tumor volume using the formula: Tumor Volume(TV)=[…]
The percent change in tumor volume was calculated by normalizing the percent change to the tumor volume recorded on the day of treatment. […]

[3] = tested on: MCF-7 cells; experiment: Cell death quantification MCF-7 (blebbing and/or Annexin V); type: cell-based, human
Procedure: Apoptosis Indicator. The apoptosis indicator Annexin V Alexa Fluor 568 was stored in a solution containing 25 mM HEPES, 140 mM NaCl, 1 mM EDTA, pH 7.4, plus 0.1% bovine serum albumin (BSA). A 10 μL of stock Annexin V Alexa Fluor 568 was diluted in 2 mL of binding buffer. The binding buffer consisted of: 10 mM HEPES, 140 mM NaCl, and 2.5 mM CaCl2, at a pH of 7.4. Cell Death Quantification MCF-7. After UV flash paradigm, the presences of blebs were observed and recordings of the pH in the intrablebular inflationary space (pHb) were acquired using the DCFDA fluorescence as they expanded. […] We quantified blebs as cellular death based on previously published findings which described blebbing as an irreversible death process (Andrade et al., Biology of the Cell, 2010, 102(1):25-35). Control Experiments. Controls in each experiment were performed by moving 10 mm or more away from the UV or 980 nm exposed region. Recordings of pHi were performed to detect if NBA or the nanoparticle affected the cell or inadvertently uncaged hydrogens in the periphery of the plate. Detection of apoptosis and/or blebs was performed using Annexin V Alexa Fluor 568 and DCFDA optical recording. Control experiments were performed in the following conditions: UV alone, time alone, and NBA alone. Each one of the control experiments was performed for a minimum of 3 hours.

[4] = tested on: MDA-MB-231 tumors; experiment: Survival of nude mice with MDA-MB-231 tumors after one-time NBA phototherapy; type: in vivo
Procedure: The described inventive technique is effective in increasing the duration of survival in animals with cancer in vivo. […] NBA was injected into the established triple negative breast cancer MDA-MB-231 tumors of 6 week old nude mice. One hour was permitted to allow adequate diffusion of the NBA into the intracellular space of the cancer cells. Following this one-hour diffusion period, the tumors were exposed to 405 nm photo-activating light (85 mW) for a 60-30-60 excitation paradigm (described previously).
Following their one-time treatment of either NBA with photo-activation or control aCSF, mice were monitored and euthanized in accordance with the Humane Endpoints approved by the University of Texas at San Antonio Institutional Animal Care and Use Committee (IACUC). The control aCSF treated mice (n=4) survived for an average of 16.5±1.66 days from the day of treatment, with survival days from treatment ranging from 14 to 19 days. In contrast, the one-time NBA treated mice survived for 35.2±5.70 days from the day of treatment (FIG. 22). The NBA treated mice survival ranged from 18 to 50 days from treatment.

[5] = tested on: rat ventricular myocytes; conditions: NBA 1 mM, absence of UV exposure; cited from earlier work
[6] = tested on: MDA-MB-231 cells; experiment: Cell death quantification MDA-MB-231 (blebbing and/or Annexin V); type: cell-based, human; conditions: in less than three hours following NBA flash photolysis
Procedure: Cell Death Quantification MDA-MB-231. One hour after the UV flash paradigm to induce intracellular acidosis, the cells were lightly washed and the media was replaced with the phosphatidylserine indicator Annexin V Alexa Fluor 568. This solution was made using 10 μL of the stock solution and diluted in 2 ml of rat aCSF. Fifteen minutes was allowed for membrane binding, then fluorescence was monitored for the next hour or until all cells were expressing apoptosis. As with MCF-7 cells, we quantified blebs as cellular death based on previously published findings which described blebbing as an irreversible death process (Andrade et al., Biology of the Cell, 2010, 102(1):25-35).

[7] = tested on: PC12 cells; experiment: Optical recording of pHi (DCFDA) in PC12 cells before/after UV flash photolysis of NBA; type: cell-based, Rat
Procedure: Calibrating and Measuring pH with DCFDA. For ratiometric pH, measurements, PC12 cells were loaded with the pH-sensitive dye Carboxy-DCFDA (10 μM in rat aCSF). Nigericin was titrated to a pH of 2.0, 4.0, 5.0, 6.0, 7.0 or 8.0. The emitted fluorescence of DCFDA was recorded from cells at each of the titrated pH solutions. […] Each ratio from individual cells (n=421) was recorded for each pH. A curve of best fit was created (R^2=93.02) and used for the conversion of fluorescence to pHi.
Optic Recording of pHi PC12. DCFDA stock solution was diluted to a concentration of 10 μM in a 3 mL rat aCSF solution. PC12 cells were flashed every 30 second at 495/440 nm for a duration of 900/700 ms, respectively, at 40× magnification and 2 seconds at each wavelength under the 10× magnification. Cells were washed three times with rat aCSF after 10 minutes and prior to recording fluorescence to monitor steady state.
NBA Loading for Focal Acidification of PC12. Seventy-five μL of NBA stock solution was mixed in 3 mL of rat aCSF and bath applied to PC12 cells for 10 minutes. After bath application, cells were washed a minimum of three times with rat aCSF. PC12 cells were exposed to UV light using various flash paradigms. After each exposure, pH was monitored for 2 minutes to quantify pH, acidification.
In our experiments PC12 cells were loaded with the ratiometric fluorescent dye DCFDA. DCFDA was utilized for measuring changes in the intracellular pH (pHi) of a cell over a broad pH range from 2.0 to 7.0 (FIG. 3A, 3B). In this embodiment of the invention, NBA (1 mM) was bath applied at room temperature to PC12 cells and allowed to passively diffuse across the cell membrane. Emitted fluorescence ratios were taken prior to photoactivation of NBA with a flash photolysis paradigm (FIG. 15). Emitted fluorescence ratios were also recorded after NBA was exposed to a wavelength of 350 nm UV light. Using fluorescence microscopy, we can optically record and quantify changes in pHi.

[8] = tested on: MCF-7 cells; experiment: Optical recording of pHi (DCFDA) in MCF-7 cells before/after UV flash photolysis of NBA; type: cell-based, human
Procedure: (§1) Optical Recording of pH, MCF-7. DCFDA stock solution was diluted to a concentration of 10 μM in a 3 mL rat aCSF solution. MCF-7 cells were flashed every 30 seconds at 495/440 nm for a duration of 900/700 ms, respectively, at 40× magnification and 2 seconds at each wavelength under the 10× magnification. […] Optical recording of pHi was monitored for a minimum of 10 minutes to represent a steady state.
(§2) NBA Load for Focal Acidification of MCF-7. Seventy-five μL of NBA stock solution was mixed in 3 mL of rat aCSF and bath applied to MCF-7 cells for 10 minutes. After bath application, cells were washed a minimum of three times with rat aCSF. MCF-7 cells were exposed to 60-30-60 UV light paradigm. After each exposure, pH was monitored for 2 minutes to quantify pHi acidification.

[9] = tested on: PC12 cells; experiment: Cell death quantification PC12 (Annexin V Alexa Fluor 568); type: cell-based, Rat
Procedure: Apoptosis Indicator. The apoptosis indicator Annexin V Alexa Fluor 568 was stored in a solution containing 25 mM HEPES, 140 mM NaCl, 1 mM EDTA, pH 7.4, plus 0.1% bovine serum albumin (BSA). A 10 μL of stock Annexin V Alexa Fluor 568 was diluted in 2 mL of binding buffer. The binding buffer consisted of: 10 mM HEPES, 140 mM NaCl, and 2.5 mM CaCl2, at a pH of 7.4.
Cell Death Quantification PC12. One hour after the UV flash paradigm to induce intracellular acidosis, the cells were lightly washed and the media was replaced with the phosphatidylserine indicator Annexin V Alexa Fluor 568. This solution was made using 10 μL of the stock solution and diluted in 2 ml of rat aCSF. Fifteen minutes was allowed for membrane binding, then fluorescence was monitored for the next hour or until all cells were expressing apoptosis.
Control Experiments. Controls in each experiment were performed by moving 10 mm or more away from the UV or 980 nm exposed region. Recordings of pHi were performed to detect if NBA or the nanoparticle affected the cell or inadvertently uncaged hydrogens in the periphery of the plate. Detection of apoptosis and/or blebs was performed using Annexin V Alexa Fluor 568 and DCFDA optical recording. Control experiments were performed in the following conditions: UV alone, time alone, and NBA alone. Each one of the control experiments was performed for a minimum of 3 hours.

[10] = tested on: MDA-MB-231 cells; experiment: Optical recording of pHi (DCFDA) in MDA-MB-231 cells before/after UV flash photolysis of NBA; type: cell-based, human
Procedure: as §1, with “pHi MDA-MB-231.” for “pH, MCF-7.”, “MBA-MD-231” for “MCF-7”
as §2, with “MDA-MB231.” for “MCF-7.”, “MDA-MB-231” for “MCF-7”, “pH,” for “pHi”

Question: Which “Effect on spontaneous fictive respiratory motor output and central respiratory chemoreceptor responses” value [1] does the source give for O=Cc1ccccc1[N+](=O)[O-] [NBA, 2-nitrobenzaldehyde] here?
Answer: no disruption

Question: And the “Duration of significant reduction in tumor volume vs aCSF control” value [2]?
Answer: up to 13 days

Question: And the “Percentage of apoptosis, NBA only” value ([3]; MCF-7 cells exposed only to NBA, no UV)?
Answer: 2.3%

Question: What about the “Percentage of death within 2 hours” value ([3]; MCF-7 cells incubated in NBA and exposed to UV, within 2 hours) of the same compound?
Answer: above 90%

Question: And the “Average apoptosis over time” value ([3]; MCF-7 cells, 1 mM NBA + 60-30-60 UV flash)?
Answer: 98.3±0.3%

Question: And the “Mean survival from the day of treatment” value ([4]; one-time NBA + 405 nm (85 mW) 60-30-60 photo-activation, nude mice)?
Answer: 35.2 ± 5.70 days

Question: And the “Increase in survivability vs control aCSF” value ([4]; one-time NBA photo-activation vs aCSF control, P=0.012)?
Answer: 113.3%

Question: And the “Effect on diastolic Ca2+, cellular contraction, spatial pHi regulation” value [5]?
Answer: did not alter

Question: What about the Cell death [6] of the same compound?
Answer: 55.3%

Question: And the “Average pHi drop, first flash” value ([7]; PC12 cells (n=22), 60-30-60 UV flash paradigm, flash 1)?
Answer: 0.72

Question: And the “Average pHi drop, second flash” value ([7]; PC12 cells (n=22), 60-30-60 UV flash paradigm, flash 2)?
Answer: 0.36

Question: And the “Average pHi drop, third flash” value ([7]; PC12 cells (n=22), 60-30-60 UV flash paradigm, flash 3)?
Answer: 0.36

Question: What about the “Mean pHi before flash photolysis” value ([7]; PC12 cells, 1 mM NBA, 10 μM DCFDA, after NBA application and prior to photolysis) of the same compound?
Answer: 7.55±0.025 and 7.55

Question: What about the “Mean pHi after flash photolysis” value ([7]; PC12 cells, 1 mM NBA, after 350 nm UV exposure) of the same compound?
Answer: 6.37±0.03 and 6.37

Question: What about the “Mean change in pHi (Δ pHi)” value ([7]; PC12 cells, 1 mM NBA, flash photolysis) of the same compound?
Answer: 1.18 pH units

Question: What about the “Average pHi drop, first flash” value ([8]; MCF-7 cells (n=13), 60-30-60 UV flash paradigm, flash 1) of the same compound?
Answer: 0.68

Question: What about the “Average pHi drop, second flash” value ([8]; MCF-7 cells (n=13), 60-30-60 UV flash paradigm, flash 2) of the same compound?
Answer: 0.35

Question: What about the “Average pHi drop, third flash” value ([8]; MCF-7 cells (n=13), 60-30-60 UV flash paradigm, flash 3) of the same compound?
Answer: 0.59

Question: What about the “Mean pHi before flash photolysis” value ([8]; MCF-7 cells, 1 mM NBA, 10 μM DCFDA, before 60-30-60 UV flash paradigm) of the same compound?
Answer: 7.38±0.13 and 7.38

Question: What about the “Mean pHi after flash photolysis” value ([8]; MCF-7 cells, 1 mM NBA, after 60-30-60 UV flash paradigm) of the same compound?
Answer: 6.22±0.15 and 6.22

Question: What about the Average apoptosis ([9]; NBA + UV flash photolysis) of the same compound?
Answer: 84.0±1.33%

Question: And the “Percentage of cells exhibiting apoptosis, NBA alone” value ([9]; NBA alone, no UV (n=47))?
Answer: 2.1%

Question: What about the “Mean pHi before flash paradigm” value ([10]; MDA-MB-231 cells (n=38), loaded with NBA, before 60-30-60 UV flash) of the same compound?
Answer: 6.47±0.06

Question: What about the “Mean Δ pHi” value ([10]; MDA-MB-231 cells, NBA, 60-30-60 UV flash) of the same compound?
Answer: 3.68±0.18 pH units

Question: And the “Mean pHi after flash paradigm” value ([10]; MDA-MB-231 cells, NBA, after 60-30-60 UV flash)?
Answer: 2.78±0.23

— patent US10946096B2, “Nitrobenzaldehyde proton release for manipulation of cellular acidosis” (priority 2014, dated 2021)
